Holding throughout (format): biochemical
The target in one assay is PAK2 (PAK65) (Homo sapiens, UniProt Q13177). The experiment in a line: In vitro PAK inhibition assay (SelectScreen, Ser/Thr 20 peptide). A digest of the protocol:
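Ten-point threefold compound dilutions (1% DMSO) were incubated with PAK2 (0.29-6 ng) and Ser/Thr 20 substrate (2 μM) for 60 min at room temperature in HEPES pH 7.5 buffer with MgCl2, EGTA and BRIJ-35.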

The target of a further assay is PAK1 (Homo sapiens, UniProt Q13153). Briefly: In vitro PAK inhibition assay (SelectScreen, Ser/Thr 19 peptide). A digest of the protocol:
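Ten-point, 3-fold compound series at 1% final DMSO were incubated with enzyme, Ser/Thr 19 peptide and ATP for 60 min at room temperature. Buffer was HEPES pH 7.5 (50 mM) with 10 mM MgCl2, 1 mM EGTA, 0.01% BRIJ-35. A 60 min development step preceded the fluorescence read converted to % phosphorylation.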

Another assay deals with PAK4 (Homo sapiens, UniProt O96013). The experiment in a line: In vitro PAK inhibition assay (SelectScreen, Ser/Thr 20 peptide). The gist of the method: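 Ten-point, 3-fold compound series (1% DMSO) incubated 1 h at room temperature with PAK4 (0.1-0.75 ng) and 2 μM Ser/Thr 20 peptide, HEPES pH 7.5 buffer with MgCl2, EGTA, BRIJ-35. Development reagent cleaves non-phosphorylated peptide; fluorescence emission ratio gives % phosphorylation, fitted sigmoidally for IC50.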
Sequence of PAK4 (O96013 whole entry): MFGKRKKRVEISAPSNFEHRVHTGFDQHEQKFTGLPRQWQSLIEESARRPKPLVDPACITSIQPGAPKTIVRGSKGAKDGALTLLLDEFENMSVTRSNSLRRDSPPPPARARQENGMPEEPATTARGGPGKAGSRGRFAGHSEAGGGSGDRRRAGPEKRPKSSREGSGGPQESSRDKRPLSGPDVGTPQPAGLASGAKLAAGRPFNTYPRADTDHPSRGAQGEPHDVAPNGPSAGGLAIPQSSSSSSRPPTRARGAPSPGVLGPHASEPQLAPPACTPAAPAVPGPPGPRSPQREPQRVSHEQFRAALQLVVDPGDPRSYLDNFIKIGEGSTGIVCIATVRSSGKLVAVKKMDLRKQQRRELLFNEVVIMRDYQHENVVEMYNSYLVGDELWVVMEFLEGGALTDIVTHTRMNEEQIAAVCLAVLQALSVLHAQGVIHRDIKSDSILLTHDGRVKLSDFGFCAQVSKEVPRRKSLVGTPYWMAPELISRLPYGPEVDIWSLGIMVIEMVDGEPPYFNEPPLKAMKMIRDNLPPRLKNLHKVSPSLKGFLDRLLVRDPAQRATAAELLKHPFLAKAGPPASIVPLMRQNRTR

The next assay concerns the target PAK3 (Homo sapiens, UniProt O75914). Described as above. A digest of the protocol:
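Fluorescence-based development format: after a 60-min room-temperature kinase reaction and 60-min protease development, percent phosphorylation of Ser/Thr 20 peptide calculated via phosphopeptide controls. Buffer 50 mM HEPES pH 7.5, 10 mM MgCl2, 1 mM EGTA, 0.01% BRIJ-35; compounds at 1% DMSO, 10-point 3-fold dilution series.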

SMILES strings stand for the structures.

Sequence of PAK3 (O75914 whole entry): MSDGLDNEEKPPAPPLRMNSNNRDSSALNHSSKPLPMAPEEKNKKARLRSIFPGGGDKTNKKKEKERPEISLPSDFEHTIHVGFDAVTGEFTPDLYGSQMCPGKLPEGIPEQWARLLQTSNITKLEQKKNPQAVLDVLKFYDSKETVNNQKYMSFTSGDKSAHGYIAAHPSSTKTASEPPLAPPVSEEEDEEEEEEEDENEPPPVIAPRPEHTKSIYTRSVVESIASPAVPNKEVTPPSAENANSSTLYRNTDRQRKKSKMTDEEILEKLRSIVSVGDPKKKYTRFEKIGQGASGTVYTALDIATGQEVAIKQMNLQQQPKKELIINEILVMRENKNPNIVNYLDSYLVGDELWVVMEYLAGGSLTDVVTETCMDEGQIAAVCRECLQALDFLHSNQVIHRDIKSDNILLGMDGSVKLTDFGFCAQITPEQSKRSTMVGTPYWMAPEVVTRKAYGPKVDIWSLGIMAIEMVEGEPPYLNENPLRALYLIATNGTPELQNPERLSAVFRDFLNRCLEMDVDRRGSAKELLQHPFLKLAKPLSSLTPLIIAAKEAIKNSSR
Sequence of PAK2 (PAK65) (Q13177 whole entry): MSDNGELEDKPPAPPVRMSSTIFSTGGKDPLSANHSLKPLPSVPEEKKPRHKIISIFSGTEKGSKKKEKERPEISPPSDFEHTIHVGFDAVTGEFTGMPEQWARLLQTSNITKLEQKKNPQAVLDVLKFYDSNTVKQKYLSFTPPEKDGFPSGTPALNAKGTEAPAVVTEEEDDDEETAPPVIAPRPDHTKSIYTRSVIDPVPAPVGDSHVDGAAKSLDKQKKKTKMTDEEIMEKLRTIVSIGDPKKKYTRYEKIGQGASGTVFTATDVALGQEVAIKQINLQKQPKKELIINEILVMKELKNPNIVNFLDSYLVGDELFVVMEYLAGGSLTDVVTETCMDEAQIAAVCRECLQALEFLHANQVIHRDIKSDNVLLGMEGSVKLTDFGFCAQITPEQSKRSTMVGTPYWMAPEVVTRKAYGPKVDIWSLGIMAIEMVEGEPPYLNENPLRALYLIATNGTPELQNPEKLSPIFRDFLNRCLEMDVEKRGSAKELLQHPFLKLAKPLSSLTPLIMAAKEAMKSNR
Sequence of PAK1 (Q13153 whole entry): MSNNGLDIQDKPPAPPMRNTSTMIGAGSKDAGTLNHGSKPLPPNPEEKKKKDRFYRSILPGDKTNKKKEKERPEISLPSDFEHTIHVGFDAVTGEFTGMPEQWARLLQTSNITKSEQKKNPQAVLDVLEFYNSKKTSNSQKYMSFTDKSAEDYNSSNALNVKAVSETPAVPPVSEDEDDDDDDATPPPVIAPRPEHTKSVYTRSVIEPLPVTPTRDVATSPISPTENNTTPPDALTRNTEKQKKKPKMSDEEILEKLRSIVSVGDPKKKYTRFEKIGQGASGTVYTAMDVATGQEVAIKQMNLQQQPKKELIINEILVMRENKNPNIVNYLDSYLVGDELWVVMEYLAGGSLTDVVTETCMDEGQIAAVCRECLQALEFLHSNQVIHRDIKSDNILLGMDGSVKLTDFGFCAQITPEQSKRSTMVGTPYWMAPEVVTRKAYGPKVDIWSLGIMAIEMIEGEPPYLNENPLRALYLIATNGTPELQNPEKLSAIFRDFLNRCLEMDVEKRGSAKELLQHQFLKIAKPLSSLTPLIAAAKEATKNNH

One may read the IC50 as the concentration that inhibits the measured activity by half. Low values mean higher potency, high ones lower potency. For the molecule `CCn1c(=O)c(-c2ccc(-c3cnn(C)c3)cc2Cl)cc2cnc(Nc3ccc(N4CCN(C)CC4)cc3)nc21`, the IC50 on PAK2 (PAK65) was under 50 nM; against PAK1 it was under 50 nM; at PAK4 it was at least 5000 nM; against PAK3, 50 to 500 nM.

As for `CCn1c(=O)c(-c2ccc(-c3cnn(C)c3)cc2)cc2cnc(Nc3ccc(N4CCN(C)CC4)cc3)nc21`, the IC50 against PAK2 (PAK65) was 50 to 500 nM; on PAK1, 50 to 500 nM; against PAK4 it was at least 5000 nM; against PAK3, 500 to 5000 nM.

Turning to `CCn1c(=O)c(-c2ccc(-c3cccc4[nH]ccc34)cc2Cl)cc2cnc(Nc3ccc(N4CCN(C)CC4)cc3)nc21`, the IC50 is 50 to 500 nM on PAK2 (PAK65), under 50 nM against PAK1, at least 5000 nM at PAK4 and 50 to 500 nM at PAK3.

For the molecule `CCn1c(=O)c(-c2ccc(-c3noc(C)n3)cc2)cc2cnc(Nc3ccc(C4CCN(C)CC4)cc3)nc21`, the IC50 was 50 to 500 nM on PAK2 (PAK65), 50 to 500 nM against PAK1, at least 5000 nM against PAK4 and 50 to 500 nM at PAK3.

`CCn1c(=O)c(-c2ccc(-c3noc(C)n3)cc2Cl)cc2cnc(Nc3ccc(CCN4CCOCC4)cc3)nc21`: the IC50 against PAK2 (PAK65) is 50 to 500 nM; against PAK1, 50 to 500 nM; on PAK4 it was at least 5000 nM; on PAK3, 50 to 500 nM.

For the molecule `CCn1c(=O)c(-c2ccc(-c3cccnc3F)cc2Cl)cc2cnc(Nc3ccc(CCN4CCCC4)cc3)nc21`, the IC50 was under 50 nM against PAK2 (PAK65), under 50 nM against PAK1, 50 to 500 nM against PAK4 and under 50 nM on PAK3.

Regarding `CCn1c(=O)c(-c2ccc(-c3cnc(C)s3)cc2Cl)cc2cnc(Nc3ccc(CCN4CCCC4)cc3)nc21`, the IC50 at PAK2 (PAK65) is under 50 nM; at PAK1 it was under 50 nM; on PAK4, 500 to 5000 nM; at PAK3 it was under 50 nM.

Turning to `Cc1ncc(-c2ccc(-c3cc4cnc(Nc5ccc(C6CCNCC6)cc5)nc4n(C)c3=O)c(Cl)c2)s1`, the IC50 against PAK2 (PAK65) was under 50 nM; on PAK1 it was under 50 nM; against PAK4 it was 500 to 5000 nM; on PAK3, 50 to 500 nM.

Turning to `CCn1c(=O)c(-c2ccc(-c3cnc(C)s3)cc2Cl)cc2cnc(Nc3ccc(CCN4CCOCC4)cc3)nc21`, the IC50 at PAK2 (PAK65) is 50 to 500 nM; against PAK1, 50 to 500 nM; against PAK4, at least 5000 nM; against PAK3, 50 to 500 nM.

Turning to `CCn1c(=O)c(-c2ccc(-c3cccnc3C)cc2Cl)cc2cnc(Nc3ccc(CCN4CCOCC4)cc3)nc21`, the IC50 is 50 to 500 nM at PAK2 (PAK65), 50 to 500 nM against PAK1, at least 5000 nM against PAK4 and 50 to 500 nM on PAK3.

Regarding `CCn1c(=O)c(-c2ccc(-c3cccnc3C)cc2C)cc2cnc(Nc3ccc(C4CCN(C)CC4)cc3)nc21`, the IC50 against PAK2 (PAK65) was 50 to 500 nM; against PAK1 it was under 50 nM; at PAK4 it was at least 5000 nM; against PAK3, 50 to 500 nM.

Turning to `CCn1c(=O)c(-c2ccc(-c3noc(C)n3)cc2C)cc2cnc(Nc3ccc(C4CCN(C)CC4)cc3)nc21`, the IC50 on PAK2 (PAK65) is under 50 nM; on PAK1, under 50 nM; against PAK4 it was 500 to 5000 nM; on PAK3, under 50 nM.

Take `CCN(CC)CCc1ccc(Nc2ncc3cc(-c4ccc(-c5cccnc5C)cc4Cl)c(=O)n(CC)c3n2)cc1`: the IC50 on PAK2 (PAK65) is under 50 nM; against PAK1, under 50 nM; against PAK4, at least 5000 nM; on PAK3, 50 to 500 nM.

Consider `CCN(CC)CCc1ccc(Nc2ncc3cc(-c4ccc(-c5cccnc5F)cc4Cl)c(=O)n(CC)c3n2)cc1`, for which the IC50 was under 50 nM against PAK2 (PAK65), under 50 nM against PAK1, 50 to 500 nM at PAK4 and under 50 nM on PAK3.

For `CCN(CC)CCc1ccc(Nc2ncc3cc(-c4ccc(-c5noc(C)n5)cc4Cl)c(=O)n(CC)c3n2)cc1`, the IC50 against PAK2 (PAK65) was under 50 nM; at PAK1 it was under 50 nM; at PAK4, 500 to 5000 nM; on PAK3 it was under 50 nM.

For the molecule `CCN(CC)CCc1ccc(Nc2ncc3cc(-c4ccc(-c5cnc(C)s5)cc4Cl)c(=O)n(CC)c3n2)cc1`, the IC50 against PAK2 (PAK65) is under 50 nM; at PAK1, under 50 nM; at PAK4 it was 500 to 5000 nM; against PAK3 it was under 50 nM.

Consider `CCn1c(=O)c(-c2ccc(-c3noc(C)n3)cc2F)cc2cnc(Nc3ccc(C4CCN(C)CC4)cc3)nc21`, for which the IC50 against PAK2 (PAK65) is under 50 nM; on PAK1, under 50 nM; at PAK4 it was at least 5000 nM; on PAK3, 50 to 500 nM.

Take `CCn1c(=O)c(-c2ccc(-c3cnccn3)cc2F)cc2cnc(Nc3ccc(C4CCN(C)CC4)cc3)nc21`: the IC50 was under 50 nM at PAK2 (PAK65), under 50 nM at PAK1, 50 to 500 nM against PAK4 and under 50 nM against PAK3.

In the case of `Cc1ncccc1-c1cc(Cl)c(-c2cc3cnc(Nc4ccc(C5CCN(C)CC5)cc4)nc3n(C)c2=O)cc1F`, the IC50 on PAK2 (PAK65) was 50 to 500 nM; against PAK1, 50 to 500 nM; against PAK4, at least 5000 nM; against PAK3 it was 500 to 5000 nM.

With `CN1CCC(c2ccc(Nc3ncc4cc(-c5cc(F)c(-c6cccnc6F)cc5Cl)c(=O)n(C)c4n3)cc2)CC1`, the 50% inhibitory concentration (IC50) on PAK2 (PAK65) was under 50 nM; at PAK1, under 50 nM; at PAK4, at least 5000 nM; against PAK3, 50 to 500 nM.

Turning to `CCn1c(=O)c(-c2ccc(-c3cc(C)ncn3)cc2Cl)cc2cnc(Nc3ccc(C4CCN(C)CC4)cc3)nc21`, the IC50 is 50 to 500 nM on PAK2 (PAK65), under 50 nM at PAK1, at least 5000 nM against PAK4 and 50 to 500 nM against PAK3.

On to `CCn1c(=O)c(-c2ccc(-c3ccccc3F)cc2Cl)cc2cnc(Nc3ccc(C4CCN(C)CC4)cc3)nc21`, for which the IC50 against PAK2 (PAK65) was under 50 nM; against PAK1 it was under 50 nM; against PAK4 it was 500 to 5000 nM; against PAK3 it was under 50 nM.

Turning to `CCn1c(=O)c(-c2ccc(-c3cnc(C)o3)cc2Cl)cc2cnc(Nc3ccc(C4CCN(C)CC4)cc3)nc21`, the concentration for half-maximal inhibition (IC50) against PAK2 (PAK65) was 50 to 500 nM; on PAK1, under 50 nM; against PAK4 it was at least 5000 nM; against PAK3, 50 to 500 nM.

Take `CCn1c(=O)c(-c2ccc(-c3cc(C(F)(F)F)ncn3)cc2Cl)cc2cnc(Nc3ccc(C4CCN(C)CC4)cc3)nc21`: the IC50 on PAK2 (PAK65) is 50 to 500 nM; at PAK1, 50 to 500 nM; against PAK4, at least 5000 nM; against PAK3 it was 50 to 500 nM.

On to `CCn1c(=O)c(-c2ccc(-c3cc(NC4CC4)ncn3)cc2Cl)cc2cnc(Nc3ccc(C4CCN(C)CC4)cc3)nc21`, for which the IC50 against PAK2 (PAK65) is 50 to 500 nM; on PAK1 it was 50 to 500 nM; against PAK4, at least 5000 nM; against PAK3 it was 50 to 500 nM.

For `CCn1c(=O)c(-c2ccc(-c3cc(C)nc(C)n3)cc2Cl)cc2cnc(Nc3ccc(C4CCN(C)CC4)cc3)nc21`, the IC50 was under 50 nM against PAK2 (PAK65), under 50 nM against PAK1, at least 5000 nM against PAK4 and 50 to 500 nM against PAK3.

In the case of `CCOC(=O)c1cncnc1-c1ccc(-c2cc3cnc(Nc4ccc(C5CCN(C)CC5)cc4)nc3n(CC)c2=O)c(Cl)c1`, the IC50 against PAK2 (PAK65) was 500 to 5000 nM; on PAK1, 500 to 5000 nM; at PAK4 it was at least 5000 nM; against PAK3 it was 500 to 5000 nM.

For `CCn1c(=O)c(-c2ccc(-c3cc(N(C)C)ncn3)cc2Cl)cc2cnc(Nc3ccc(C4CCN(C)CC4)cc3)nc21`, the IC50 was 50 to 500 nM against PAK2 (PAK65), under 50 nM against PAK1, at least 5000 nM on PAK4 and 50 to 500 nM at PAK3.
